Key:
[1] = Lubricating effect: pendulum-type dynamic friction coefficient measurement; assay type: physicochemical; settings: for Dynamic friction coefficient: room temperature, mean of three
Procedure: Lubricating effect of fullerene was examined using three different solutions. 20 ml each of the solutions of (A) osteoarthritis patient-derived synovial fluid, (B) 50% polyethylene glycol solution, and (C) joint function-improving agent (hyaluronic acid formulation) were prepared, and dispensed into two tubes at 10 ml each. One 10 ml solution was mixed with fullerene (C60) to adjust the final concentration to 1.0 μM. The other 10 ml solution was used as a control solution. The dynamic friction coefficients of the respective solutions at room temperature were measured three times by a pendulum-type dynamic friction coefficient measuring apparatus (Japan Lubricating Oil Society), and the mean values were calculated. The dynamic friction coefficients were compared between the fullerene solutions and the control solutions.

[2] = test system: osteoarthritis model animals (rabbits); test: Osteoarthritis rabbit model, intraarticular water-solubilized fullerene 0.1 to 40.0 μM, safranin O cartilage degeneration; assay type: in vivo; settings: for Efficacy on cartilage degeneration (rabbits responding): eight-week administration
Procedure: Various concentrations (0.1, 1.0, 10.0, or 40.0 μM) of water-solubilized fullerene (cyclodextrin clathrate C60) was injected into the right knee joints of osteoarthritis model animals (rabbits), and solvent alone was injected into the left knee joints as controls intraarticularly once a week. On the fourth or eighth week after the start of administration, the knees were dissected and stained with safranin O, to compare the degree of cartilage degeneration of medial and lateral tibia.
As described above, the therapeutic effect of the four-week or eight-week repetitive administration with water-solubilized fullerene was confirmed. Therefore, the therapeutic effect of a single administration of water-solubilized fullerene was also examined. Immediately after the preparation of an osteoarthritis rabbit model, a single dose of water-solubilized fullerene was administered. On the eighth week, articular cartilage tissue samples were prepared, and the therapeutic effect was examined.

[3] = test system: MMP-3; test: MMP-3 concentration in synovial fluid of osteoarthritis model knee joints (ELISA); assay type: in vivo, rabbit; settings: various concentrations, sequential measurement, versus control knees
Procedure: (§1) Sequential biochemical examinations of blood and synovial fluid were also performed (pre-administration and fourth- and eighth-week post-administration of water-solubilized fullerene). The observed biochemical examination items were (A) hepatic function (GOT and GPT), renal function (urea nitrogen and creatinine), and electrolytes (Na, K, and Cl), (B) extracellular matrix-degrading enzyme production ability (MMP-1, 3, and 13), and (C) cartilage matrix-synthesizing ability (proteoglycan). The items of (A) were measured by commercially available testing equipments and items of (B) and (C) were measured by ELISA method.

[4] = General condition, organ histology and blood biochemical examination during eight-week administration; assay type: in vivo, rabbit
Procedure: In particular, in the eight-week administration, the inhibitory effect of water-solubilized fullerene on cartilage degeneration was more remarkable in the 1.0 μM and 10.0 μM administered groups rather than the 0.1 μM administered group. […] During the eight-week test period, decrease in body weight, insufficient feeding, hematuria, or abnormal hair coat was not observed in the experimental animals.
as §1

[5] = test system: proteoglycan; test: Proteoglycan concentration in synovial fluid of osteoarthritis model knee joints (ELISA); assay type: in vivo, rabbit; settings: sequential measurement
Procedure: as §1

[6] = test system: osteoarthritis model (rabbit); test: Comparative test of water-solubilized fullerene and hyaluronic acid formulation in osteoarthritis model; assay type: in vivo; settings: 1.0 μM, 2.0 ml/rabbit, eighth week; compared with hyaluronic acid formulation
Procedure: The medicinal effect of water-solubilized fullerene (cyclodextrin clathrate C60) was examined comparatively with a known articular function-improving agent (the hyaluronic acid formulation Suvenyl (registered trademark)). Specifically, the effects at the eighth week after the start of treatment on rabbits in the following five groups (A) to (E) were examined. Each group consisted of four rabbits and the administration dosage was 2.0 ml/rabbit in all groups.
Test groups: (A) Sham-operation, group administered with Suvenyl; (B) Sham-operation, group administered with 50% polyethylene glycol; (C) Osteoarthritis model, group administered with 1.0 μM water-solubilized fullerene; (D) Osteoarthritis model, group administered with 50% Suvenyl; (E) Osteoarthritis model, group administered with 1.0 μM water-solubilized fullerene and Suvenyl.

[7] = 1 μM in 50% polyethylene glycol
[8] = 1 μM in hyaluronic acid formulation
[9] = 1 μM in osteoarthritis patient-derived synovial fluid

c12c3c4c5c1c1c6c7c2c2c8c3c3c9c4c4c%10c5c5c1c1c6c6c%11c7c2c2c7c8c3c3c8c9c4c4c9c%10c5c5c1c1c6c6c%11c2c2c7c3c3c8c4c4c9c5c1c1c6c2c3c41 [C60, fullerene (C60)]
Friction coefficient decreasing rate to control solution [1, 7]: 25%
Dynamic friction coefficient [1, 7]: 0.104
Friction coefficient decreasing rate to control solution [1, 8]: 42%
Dynamic friction coefficient [1, 8]: 0.116
Friction coefficient decreasing rate to control solution [1, 9]: 37%
Dynamic friction coefficient [1, 9]: 0.111

cyclodextrin clathrate C60 [water-solubilized fullerene]
Cartilage degeneration inhibitory effect across doses ([2]; 0.1 μM to 40 μM, four-week administration): almost equivalent
Efficacy on cartilage degeneration (rabbits responding) ([2]; 0.1 μM): a mild efficacy in all four rabbits
Efficacy on cartilage degeneration (rabbits responding) ([2]; 1.0 μM): a moderate efficacy in two rabbits and a remarkable efficacy in one rabbit out of a total of four
Efficacy on cartilage degeneration (rabbits responding) ([2]; 10.0 μM): a remarkable efficacy in three rabbits out of a total of four
Efficacy on cartilage degeneration (rabbits responding) ([2]; 40.0 μM): a mild efficacy in one rabbit and moderate efficacy in another rabbit out of a total of three
Inhibitory effect on articular cartilage degeneration ([2]; 0.1, 1.0, 10.0 or 40.0 μM intraarticular once a week, four-week and eight-week administration): confirmed at the respective concentrations
Inhibitory effect on cartilage degeneration after single administration ([2]; single dose immediately after model preparation, eighth week, versus control knees): no clear inhibitory effect on cartilage degeneration was observed
MMP-3 concentration in synovial fluid [3]: not clear
Decrease in body weight, insufficient feeding, hematuria, abnormal hair coat ([4]; eight-week test period): not observed
Optical microscopic observation of organs other than the joints (brain, lung, liver, kidney, adrenal, testis) ([4]; eight-week test period): no findings showing degeneration in the respective tissues
Hepatic function, renal function, electrolyte balance ([4]; pre-administration, fourth and eighth week post-administration): not significantly changed
Proteoglycan concentration in synovial fluid [5]: not clear
Inhibitory effect on the production of cartilage matrix-degrading enzymes (MMPs) [6]: more remarkable effects than the hyaluronic acid formulation
Producing/maintaining effect of proteoglycan [6]: more remarkable effects than the hyaluronic acid formulation
